Source: patent US20070020193A1, “Dronabinol compositions and methods for using same” (priority 2005, published 2007)

Assay: Example 2 multiple rising dose inhaled delta-9-THC study: plasma pharmacokinetics
Description: A randomized, double-blind, placebo-controlled, multiple rising dose safety, tolerability, pharmacokinetic and pharmacodynamic study to assess two dose levels of inhaled delta-9-THC was conducted. Dose levels were studied in ascending order. Two consecutive groups (n=9/group) of healthy subjects were studied (Groups I and II). […] There was a lapse of at least 10 days between the groups for interim safety and pharmacokinetic analysis. Two dose levels were studied in ascending order. […] Subjects in each treatment Group (I or II) received single and multiple doses of inhaled delta-9-THC according to the following schedule:
For both dose levels, the first and the last dose of study drug was given under fasted conditions. Subjects were confined to the study site from the evening of Day −2 (Day 1 is the day of administration of the first dose of study drug) until the 120-hour blood sample following the final dose of study drug, resulting in an 18-day confinement period for subjects in Group I and a 25-day confinement period for Group II. Between the completion of Group I and the start of Group II, an interim safety and pharmacokinetic analysis was performed. Based on the results of the interim analyses, the dose level for investigation in Group II was determined.
Two MDI dosage strengths were used corresponding to the same formulations used in Example 1: one delivering 0.3 mg delta-9-THC (or placebo) per actuation and one delivering 1.2 mg delta-9-THC (or placebo) per actuation. The MDI consisted of a pressurized (via propellants) container and a metered-dose valve. The propellants provided the necessary force to expel the drug, and also acted as a solvent and diluent. The canister unit was provided within a mouthpiece (oral adapter), to expel an exact amount of drug, in the proper particle size distribution, upon each actuation. Two basic formulations containing 0.3 and 1.2 mg of delta-9-THC per 50 μL were developed with propellant 1,1,1,2 tetrafluoroethane 134a (HFA 134a), and ethanol as solvent. The formulations were made in accordance with the composition used in Example 1.
Whole blood samples were collected according to the assessment flowchart in EDTA tubes through venepuncture or indwelling catheter. Samples were immediately placed on ice and subsequently centrifuged within 30 minutes at 1,500 g for 10 minutes. Plasma was transferred into a 5 ml screw cap polypropylene tube, stoppered and stored at below minus 20° C. until transfer to the analytical laboratory for analysis. […] The measurement ranges were 0.05-30 ng/ml for delta-9-THC, 0.04-30 ng/ml for 11-OH-THC, and 0.25-10 ng/ml for THC-COOH.
For Example 2: The statistical analysis encompassed an exploratory analysis of the single and multiple dose pharmacokinetics and dose proportionality of two dose levels of inhaled delta-9-THC in healthy subjects. Descriptive statistics included number of subjects, mean, standard deviation, coefficient of variation (%) and geometric mean for all pharmacokinetic parameters.
The exploratory analysis was performed on the logarithms of the dose-normalized pharmacokinetic parameters AUC(0-inf), AUC(0-t), AUC(0-τ) and Cmax. Dose proportionality was tested both at single dose and at multiple dose (steady state) by comparing the dose groups for all pharmacokinetic parameters by an analysis of variance with dose as fixed effect.
Dose proportionality was tested by the contrast between the dose groups. For this contrast on the logarithmic scale, p-values were given. After anti-logarithmic transformation, the resultant ratios of geometric means and 90% confidence intervals were given.
Accumulation was tested by comparing the steady state values for AUC(0-τ) with the single dose values for AUC(0-τ) by a mixed model analysis of variance with dose and day (with levels single dose and steady state) as fixed effects and subject within dose as random effect.

For `CCCCCc1cc(O)c2c(c1)OC(C)(C)C1CCC(C(=O)O)=CC21` (stereo not drawn) [THC-COOH, delta-9-tetrahydrocannbinol-carboxylic acid], the “achievement of steady state” value (1.2 mg delta-9-THC three times daily) was “lack of steady state”, the “Cmax, Geometric Mean (Range)” value (1.2 mg m.d. (three times daily), Day 12, Group I) was 7.97 (6.03-10.9) ng/mL and the “AUC(0-8), Arithmetic Mean (SD)” value (1.2 mg m.d., Day 12, Group I) was 51.9 (14.7) ng · h/mL. The “AUC(0-8), Geometric Mean (Range)” value (1.2 mg m.d., Day 12, Group I) was 50.1 (34.1-69.8) ng · h/mL, the “Cmax, Arithmetic Mean (SD)” value (1.2 mg m.d., Day 12, Group I) was 8.15 (1.87) ng/mL and the “tmax, Arithmetic Mean (SD)” value (1.2 mg m.d., Day 12, Group I) was 0.86 (0.88) h. The “tmax, median (range)” value (1.2 mg m.d., Day 12, Group I) was 0.33 (0.25-2.00) h, the “t½, Arithmetic Mean (SD)” value (1.2 mg m.d., Day 12, Group I) was 32.1 (9.07) h and the “t½, Geometric Mean (Range)” value (1.2 mg m.d., Day 12, Group I) was 31.0 (23.2-43.8) h. For the same molecule, the “AUC(0-8), Arithmetic Mean (SD)” value (1.2 mg s.d., Day 1) was 18.5 (3.85) ng · h/mL, the “AUC(0-8), Geometric Mean (Range)” value (1.2 mg s.d., Day 1) was 18.2 (13.0-24.2) ng · h/mL and the “AUC(0-inf), Arithmetic Mean (SD)” value (1.2 mg s.d., Day 1) was 83.6 (18.5) ng · h/mL. For the same molecule, the “AUC(0-inf), Geometric Mean (Range)” value (1.2 mg s.d., Day 1) was 82.0 (60.5-110) ng · h/mL, the “tmax, Arithmetic Mean (SD)” value (1.2 mg s.d., Day 1) was 1.54 (0.75) h and the “tmax, median (range)” value (1.2 mg s.d., Day 1) was 2.00 (0.25-2.00) h. The “t½, Arithmetic Mean (SD)” value (1.2 mg s.d., Day 1) was 33.9 (12.8) h, the “t½, Geometric Mean (Range)” value (1.2 mg s.d., Day 1) was 32.0 (23.9-50.6) h and the “Cmax, Arithmetic Mean (SD)” value (1.2 mg s.d., Day 1, plasma) was 3.81 (0.56) ng/mL. The “Cmax, Geometric Mean (Range)” value (1.2 mg s.d., Day 1, plasma) was 3.77 (2.81-4.40) ng/mL, the “Cmax, Geometric Mean (Range)” value (3.6 mg m.d. (three times daily), Day 19, Group II) was 25.5 (13.2-45.0) ng/mL and the “AUC(0-8), Arithmetic Mean (SD)” value (3.6 mg m.d., Day 19, Group II) was 182 (97.5) ng · h/mL. For the same molecule, the “AUC(0-8), Geometric Mean (Range)” value (3.6 mg m.d., Day 19, Group II) was 159 (75.5-317) ng · h/mL, the “Cmax, Arithmetic Mean (SD)” value (3.6 mg m.d., Day 19, Group II) was 28.1 (12.7) ng/mL and the “tmax, Arithmetic Mean (SD)” value (3.6 mg m.d., Day 19, Group II) was 1.03 (0.79) h. For the same molecule, the “tmax, median (range)” value (3.6 mg m.d., Day 19, Group II) was 0.75 (0.33-2.00) h, the “t½, Arithmetic Mean (SD)” value (3.6 mg m.d., Day 19, Group II) was 39.6 (15.3) h and the “t½, Geometric Mean (Range)” value (3.6 mg m.d., Day 19, Group II) was 37.4 (24.0-62.3) h. For the same molecule, the “AUC(0-8), Arithmetic Mean (SD)” value (3.6 mg s.d., Day 1) was 47.1 (17.5) ng · h/mL, the “AUC(0-8), Geometric Mean (Range)” value (3.6 mg s.d., Day 1) was 44.5 (30.2-74.4) ng · h/mL and the “AUC(0-inf), Arithmetic Mean (SD)” value (3.6 mg s.d., Day 1) was 172 (85.6) ng · h/mL. For the same molecule, the “AUC(0-inf), Geometric Mean (Range)” value (3.6 mg s.d., Day 1) was 152 (64.8-283) ng · h/mL, the “tmax, Arithmetic Mean (SD)” value (3.6 mg s.d., Day 1) was 2.33 (0.52) h and the “tmax, median (range)” value (3.6 mg s.d., Day 1) was 2.00 (2.00-3.00) h. For the same molecule, the “t½, Arithmetic Mean (SD)” value (3.6 mg s.d., Day 1) was 23.8 (11.3) h, the “t½, Geometric Mean (Range)” value (3.6 mg s.d., Day 1) was 21.7 (11.3-39.2) h and the “Cmax, Arithmetic Mean (SD)” value (3.6 mg s.d., Day 1, plasma) was 8.75 (3.16) ng/mL. For the same molecule, the “Cmax, Geometric Mean (Range)” value (3.6 mg s.d., Day 1, plasma) was 8.34 (6.01-14.4) ng/mL, the “achievement of steady state” value (3.6-mg dose level three times daily) was “achieved after seven or eight days of dosing” and the “accumulation during multiple dosing” value (8-hours dosing interval) was “accumulation occurred during multiple dosing”. For the same molecule, the “Ratio AUC(0-8) m.d./AUC(0-8) s.d. (Accumulation factor), Mean” value (Group I, 1.2 mg) was 2.90, the “Ratio AUC(0-8) m.d./AUC(0-inf) s.d. (Linearity), Mean” value (Group I, 1.2 mg) was 0.65 and the “Ratio AUC(0-8) m.d./AUC(0-8) s.d. (Accumulation factor), Mean” value (Group II, 3.6 mg) was 3.92. For the same molecule, the “Ratio AUC(0-8) m.d./AUC(0-inf) s.d. (Linearity), Mean” value (Group II, 3.6 mg) was 1.11, the “dose proportionality: geometric mean ratio (3.6 mg:1.2 mg) of dose-normalized AUC(0-8) (90% confidence interval)” value (Multiple dose) was 1.05 (0.65-1.71) and the “dose proportionality: geometric mean ratio (3.6 mg:1.2 mg) of dose-normalized Cmax (90% confidence interval)” value (Multiple dose) was 1.07 (0.71-1.60). The “dose proportionality: geometric mean ratio (3.6 mg:1.2 mg) of dose-normalized AUC(0-8) (90% confidence interval)” value (Single dose) was 0.82 (0.60-1.11), the “dose proportionality: geometric mean ratio (3.6 mg:1.2 mg) of dose-normalized AUC(0-inf) (90% confidence interval)” value (Single dose) was 0.62 (0.39-0.98) and the “dose proportionality: geometric mean ratio (3.6 mg:1.2 mg) of dose-normalized AUC(0-t) (90% confidence interval)” value (Single dose) was 0.61 (0.34-1.09). For the same molecule, the “dose proportionality: geometric mean ratio (3.6 mg:1.2 mg) of dose-normalized Cmax (90% confidence interval)” value (Single dose) was 0.74 (0.56-0.96), the “exposure, fold higher compared to the parent” value (after both single and multiple dose administration) was “approximately 10 fold” and the “Cmax, fold lower compared to the parent compound” value (after single dosing) was 5 fold. The “dose proportionality of pharmacokinetic parameters” value (after single or multiple dose administration) was “not found to deviate significantly”, the “plasma concentration-time curve, elimination profile” value (both dose levels) was “almost no distribution phase and a multi-phasic elimination phase” and the “time of peak plasma concentration” value (both dose levels, post-dose) was “between 15 minutes and 3 hours post-dose”. For the same molecule, the “ratios of AUC(0-8) after multiple dosing versus AUC(0-inf) after single dose (linearity)” value (in vivo) was “did not deviate clearly or significantly from unity”, the “Cmax and AUC values versus dose” value (single and multiple dose administration, 1.2 and 3.6 mg) was “Dose-related increases” and the “Terminal elimination half-lives (summary estimate)” value (summary, best estimated after multiple dosing) was roughly 30 h.
